Assay results: patent publication US20120263849A1, “BITTERNESS SUPPRESSION METHOD” (KAO CORPORATION, priority 2010, published 2012)

Assay: Sensory test of bitterness, agent added to quinine sulfate standard solutions
Format: in vivo, people
Conditions: summary of Tables 2 to 4 (quinine sulfate and catechin test solutions)
Description: The bitterness suppression agent of the present invention may be applied to any substance without any particular limitation as long as the substance contains a bitter component. It is preferably applied to a composition having a bitterness having a bitterness intensity of 7 or less based on the quinine sulfate standard solution. […] More specifically, the bitterness intensity is determined by the following procedure. […] Then, the values of bitterness intensity determined by each subject are averaged out and provided as the bitterness intensity of the test substance. […]
Five subjects conducted a sensory test with reference to the bitterness level of each test solution using the quinine sulfate standard solutions shown in the following Table 1 as a standard, and an average score of the evaluation scores submitted by each subject was calculated. […]

Compound: COC(=O)c1ccccc1O [methyl salicylate]
- Suppression of bitterness (summary in words): effective suppression of bitterness without impairing the original taste and flavor
